In paper PMC11012289, “The Discovery of New Inhibitors of Insulin-Regulated Aminopeptidase by a High-Throughput Screening of 400,000 Drug-like Compounds” (International Journal of Molecular Sciences, 2024):
pIC50: −log10 of the molar value.

Columns and labels:
IRAP [1] = target: T1, IRAP (Homo sapiens, UniProt Q9UIQ6); assay: Primary fluorescence IRAP assay (L-Leucine-7-amido-4-methylcoumarin cleavage); type: biochemical; conditions: for pIC50: 37.5 µM L-Leucine-7-amido-4-methylcoumarin, 60 min RT, dose-response 20 µM-27.4 nM, read-out: Fluorescence IC50; for LipE: calculated from (pIC50Fluorescence − LogD)
T1 construct: The screen was performed with the soluble truncated IRAP enzyme; made in house
T1 sequence (Q9UIQ6 155-1025 limits assumed): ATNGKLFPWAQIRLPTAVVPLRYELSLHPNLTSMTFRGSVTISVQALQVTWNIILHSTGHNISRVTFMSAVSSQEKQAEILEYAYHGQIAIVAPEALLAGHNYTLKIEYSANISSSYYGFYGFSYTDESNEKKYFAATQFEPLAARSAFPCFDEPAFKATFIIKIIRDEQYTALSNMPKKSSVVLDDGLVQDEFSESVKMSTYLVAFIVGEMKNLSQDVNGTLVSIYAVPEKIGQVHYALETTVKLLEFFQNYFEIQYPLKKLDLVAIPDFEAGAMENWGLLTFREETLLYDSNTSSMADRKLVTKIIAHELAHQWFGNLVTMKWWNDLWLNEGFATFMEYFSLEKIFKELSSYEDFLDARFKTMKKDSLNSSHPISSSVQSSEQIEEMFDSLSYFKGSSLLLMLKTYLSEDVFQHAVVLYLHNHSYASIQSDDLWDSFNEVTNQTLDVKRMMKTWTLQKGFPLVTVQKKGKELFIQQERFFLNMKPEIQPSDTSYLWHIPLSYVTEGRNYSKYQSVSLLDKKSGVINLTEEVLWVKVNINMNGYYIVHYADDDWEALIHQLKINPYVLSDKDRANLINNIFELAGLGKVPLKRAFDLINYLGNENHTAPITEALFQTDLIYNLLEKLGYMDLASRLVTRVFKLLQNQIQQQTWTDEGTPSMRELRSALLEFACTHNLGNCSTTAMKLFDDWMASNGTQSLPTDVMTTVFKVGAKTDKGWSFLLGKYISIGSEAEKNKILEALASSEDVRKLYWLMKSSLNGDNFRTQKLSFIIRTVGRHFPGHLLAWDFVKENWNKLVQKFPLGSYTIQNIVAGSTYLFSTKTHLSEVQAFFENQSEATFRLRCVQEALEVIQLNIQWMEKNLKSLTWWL
Excerpt: The primary biochemical assay was developed to measure the enzymatic activity of IRAP.
To ensure biochemically sound, optimal, robust, and affordable assay conditions for large-scale screening, several factors need to be considered. […] For both primary fluorescence and orthogonal absorbance assays, non-binding 1536-well assay plates were used, and 0.05% BSA was included in the assay buffer to minimize the issues associated with protein sticking to plastics. The substrate Km values were determined in two separate experiments using two different batches of IRAP protein. For this, the IRAP progress curve was monitored every 5 min for 2 h using an Envision multimode plate reader (PerkinElmer, Waltham, MA, USA).
First, 10 nL of test compounds (4 mM) or 100% DMSO was dispensed into the 1536-well assay plates using an Echo acoustic liquid handler (Beckman Coulter, Brea, CA, USA). Then, 2 μL of protein working solution (5 × 10^−4 mg/mL) was dispensed to the negative control (min effect) and compound wells (final well concentration 2.5 × 10^−4 mg/mL) using a Certus Flex liquid dispenser (Fritz Gyger AG, Thun, Switzerland) and 2 μL assay buffer to the positive control wells (max effect) using a FLEXdrop (PerkinElmer, Waltham, MA, USA).
Figure S9. Reference compounds in Fluorescence IRAP assay with different end volumes in 1536-well format.
mg/ml) and 2 or 4 µL L -Leucine-7-amido-4-methylcoumarin (f.a.c.
Plates were measured on the Envision every 10 minutes for 140 minutes (data
shown up to 2 hours). %Effect was calculated using no protein as MAX effect (assay buffer was added instead of IRAP).

IRAP [2] = target: T1, IRAP; assay: Orthogonal absorbance IRAP assay (L-Leucine para-nitroanilide cleavage); type: biochemical; conditions: 1 mM L-Leucine p-Nitroanilide, 120 min RT; read-out: Absorbance pIC50 (converted)
Excerpt: The primary biochemical assay was developed to measure the enzymatic activity of IRAP. […] To establish an orthogonal assay, an alternative L-Leucine para-nitroanilide substrate was used, which IRAP turns over to L-Leucine and para-nitroaniline and is measurable by absorbance at 405 nm (Supplementary Figure S2B).
To ensure biochemically sound, optimal, robust, and affordable assay conditions for large-scale screening, several factors need to be considered. These include the final concentration of substrates, based on the determined substrate Km value; the assay kinetics and reaction linearity; achieving a minimal, rate limiting protein concentration; identifying optimal buffer additives and concentrations; the choice of assay plate type; the final assay volume per well; the stability of reagents; the magnitude and variance of the signal; and the potency and rank order of reference compounds. For both primary fluorescence and orthogonal absorbance assays, non-binding 1536-well assay plates were used, and 0.05% BSA was included in the assay buffer to minimize the issues associated with protein sticking to plastics. The substrate Km values were determined in two separate experiments using two different batches of IRAP protein. For this, the IRAP progress curve was monitored every 5 min for 2 h using an Envision multimode plate reader (PerkinElmer, Waltham, MA, USA). […] To evaluate if using substrate concentrations close to the determined Km values results in sufficient dynamic range within the linear range of the enzymatic reaction, Z′ and S/B were calculated for multiple time points up to 2.5 h in the presence and absence of reference compounds in both assays. The primary fluorescence assay reached an optimal Z′-value after 1 h when using 37.5 μM substrate (Supplementary Figure S5). For the absorbance, 2 h was required for the enzyme reaction time; however, using ~0.4 mM substrate was associated with increased assay variation and a poor Z′ (Supplementary Figure S6).
The orthogonal assay was performed in a black non-binding 1536-well plate (Corning 3728) and sealed with universal lids (Corning 3098). First, 20 nL of test compounds (4 mM) or 100% DMSO was dispensed into the 1536-well assay plates using an Echo acoustic liquid handler (Beckman Coulter). Then, 4 μL of protein working solution (5 × 10^−4 mg/mL) was dispensed to the negative control (min effect) and compound wells (final well concentration 2.5 × 10^−4 mg/mL) using the Certus Flex liquid dispenser (Fritz Gyger AG) and 4 μL assay buffer to the positive control wells (max effect) using the FLEXdrop (PerkinElmer). Next, 4 μL of 2 mM substrate working solution was dispensed into all wells using the FLEXdrop (final well concentration 1 mM). The assay plates were then centrifuged at 187.5× g for 30 s, incubated in the dark at RT for 120 min, and finally read on an Envision plate reader (PerkinElmer) (absorbance at 405 nm, 10 flashes per second). During the dose–response curve analysis in the orthogonal assay, 80 nL of compound (range 2.00 × 10^−3 M–2.74 × 10^−6 M) or 100% DMSO was dispensed into the assay plates using an Echo acoustic liquid handler (Beckman Coulter) with final well concentration range of 20 μM–27.4 nM compound and 1% DMSO.

IRAP [3] = target: T1, IRAP; assay: Deselection fluorescence IRAP assay with 10 µM zinc; type: biochemical; conditions: 10 µM ZnSO4 in assay buffer; read-out: Fluorescence + Zn pIC50 (converted)
Description: To prepare the assay buffer (50 mM Tris-HCl pH 7.4, 150 mM NaCl, 0.1 mM PMSF, 0.05% BSA) of the primary and orthogonal assays, 1 M Tris-HCl was prepared by dissolving 60.57 g Trizma-base (Mw 121.14 g/mol) (Sigma 93362-250G) in 500 mL MQ water, and the pH was adjusted to 7.4 using 4 M HCl. The solution was filtered with a 0.45 μm filter and stored at room temperature (RT). Then, 2 M NaCl stock was prepared by dissolving 29.22 g NaCl (Mw 58.44 g/mol) (Sigma S7653-250G) in 250 mL MQ water. The solution was filtered with a 0.45 μm filter and stored at RT. Next, 100 mM Phenylmethanesulfonylfluoride (PMSF) stock was prepared by dissolving 1 g PMSF (Mw 174.19 g/mol) (Sigma 78830-1G) in 57.4 mL isopropanol (Sigma I9516-500ML) and stored at 4 °C. A 10% Bovine Serum Albumin (BSA) stock solution was prepared by dissolving 2 g BSA (Mw 66.5 kDa) (Sigma A7030-50G), which was dissolved in 20 mL MQ water. The solution was filtered with a 0.45 μm filter, aliquoted, and stored at −20 °C. For the deselection assay buffer (50 mM Tris-HCl pH 7.4, 150 mM NaCl, 0.1 mM PMSF, 0.05% BSA, 10 μM ZnSO4), 1 mM ZnSO4 solution was prepared by dissolving 28.8 mg ZnSO4 (Mw 287.56 g/mol) (Sigma Z0251-100G) in 100 mL MQ water. The solution was filtered with a 0.45 μm filter and stored at RT. For the TSA assay buffer (50 mM Tris HCL, 150 mM NaCl, pH 7.4), stocks of 1 M Tris HCL and 2 M NaCl were prepared as described above.

IRAP [4] = target: T1, IRAP; assay: Thermal shift (TSA) IRAP assay; type: binding; conditions: screening hits at 30 µM, 1% DMSO
Excerpt: The Thermal shift assay (TSA) is a biophysical technique measuring protein thermal stability. The assay relies on a fluorescent dye that is quenched in an aqueous environment but fluoresces when de-solvated in non-polar environments, such as the hydrophobic pockets of proteins. The target protein is mixed with the dye and heated gradually until it becomes completely denatured; as it unfolds or melts, the dye binds to newly exposed hydrophobic regions of the protein, resulting in a significant increase in fluorescence emission detected by a PCR system. The melting temperature (Tm) is calculated from the protein melt curve, and changes in Tm (known as ΔTm) are correlated with changes in protein stability and ligand binding. […] For the TSA assay, vehicle (DMSO) or compound was dispensed into MicroAmp Endura optical qPCR plates at the desired volume using an Echo acoustic liquid handler. […] The plates were then centrifuged for 10 s at 1000 rpm and sealed with Clear PCR-compatible plate seals.

[5] = parameters: method as in ELF screening history; conditions: ref ELF screening history, cited from earlier work; for Enzyme Active: number of ELF enzyme screens in which the compound was active; for Targets active: number of ELF screens in which the compound was active; for Enzyme Active %: share of ELF enzyme targets screened; for Targets Active %: share of all ELF targets screened

Row | SMILES | pIC50 (IRAP [1]) | LipE (IRAP [1]) | IC50 (IRAP [2]) [nM] | IC50 (IRAP [3]) [nM] | ΔTm at 30 µM (IRAP [4]) [°C] | Enzyme Active [5] | Targets active [5] | Enzyme Active % [5] [%] | Targets Active % [5] [%]
1 | CC(C)C(CS(=O)(=O)N1CCC(c2ccc(F)cc2Cl)C1)C(=O)NO (stereo not drawn) [QHL6] | 5.90 | 3.57 | 5750 | 1230 | 3.55 | 3 | 5 | 3.2 | 3.4
2 | Fc1ccc(F)c(Cn2ccc3ncc(N4CCNCC4)cc32)c1Cl [QHL7] | 5.89 | 2.10 | > 20000 | 1380 | 0.3 | 8 | 9 | 8.6 | 6.0
3 | O=C(NO)C(CS(=O)(=O)N1CCC(c2ccc(F)cc2Cl)CC1)C1CCOCC1 (stereo not drawn) [QHL8] | 5.88 | 3.94 | 3550 | 1290 | 4.61 | 4 | 6 | 4.3 | 4.0
4 | COc1cc(C(=O)N2CCc3n[nH]c(-c4cccs4)c3CC2)on1 [QHL9] | 5.82 | 2.98 | > 20000 | 1580 | 0.15 | 2 | 4 | 4.9 | 5.3
5 | NCC[C@H]1CCCCN1C(=O)Cn1nc(-c2ccc(Cl)cc2)c2c1CCCC2 [QHL11] | 5.78 | 2.57 | 3890 | 1700 | 1.92 | 4 | 5 | 4.2 | 3.4
6 | Cc1cccc(Cl)c1CNc1ncnc2ncn(C)c12 [QHL12] | 5.72 | 1.68 | 13800 | 1950 | -0.15 | 3 | 3 | 3.6 | 2.1
7 | COc1ccc([C@@H]2c3nnnn3CCN2CCCN(C)c2ccccc2)c(C)c1 [QHL13] | 5.67 | 2.39 | 16200 | 2000 | -1.91 | 12 | 19 | 14.1 | 13.2
8 | O=C(COCc1ccccc1)N1CCc2n[nH]c(-c3cccs3)c2CC1 [QHL14] | 5.65 | 2.42 | > 20000 | 2340 | 0.15 | 3 | 5 | 7.3 | 6.6
9 | O=c1cc(N2CCCC2)nc2n(Cc3cc(Cl)ccc3Cl)ccn12 [QHL15] | 5.62 | 3.54 | > 20000 | 2570 | -0.89 | 6 | 10 | 7.1 | 7.1
10 | CC(C)[C@@H](CS(=O)(=O)N(C)CC1CCc2ccccc2C1)C(=O)NO (stereo partly drawn) [QHL16] | 5.58 | 3.14 | 3800 | 2820 | 2.07 | 4 | 4 | 5.1 | 2.8
11 | Cc1cc(NC(=O)Cn2cnc3sc4c(c3c2=O)CCCC4)n(-c2ccccc2)n1 [QHL17] | 5.58 | 2.19 | > 20000 | 3240 | 0.3 | 4 | 5 | 4.2 | 3.3
12 | CC(C)c1cc(C(=O)N2CCc3n[nH]c(-c4cccs4)c3CC2)[nH]n1 [QHL19] | 5.55 | 1.83 | 16200 | 2950 | 0.3 | 4 | 6 | 9.5 | 7.9
13 | CC(C)[C@@H](CS(=O)(=O)N(C)Cc1sc2ccccc2c1Cl)C(=O)NO [QHL20] | 5.55 | 2.71 | 5750 | 3160 | 4.15 | 1 | 3 | 1.9 | 2.9
